Laboratory results as given in patent US9023789B2, “Amylin analogs and pharmaceutical compositions thereof” (Novo Nordisk A/S, priority 2012, dated 2015).
Converted amounts (≈) assume the structure as drawn. Like-named read-outs stand apart in the source and are kept apart here. Numbered stars: 1 amine (or outer) side, 2 acyl side, 3 side chain; on linkers, the order of the positions; unused ones are H or OH. Bridge positions count the residues as written; N and C are the ends. Side chains are listed from the residue outwards. Peptide text beside a SMILES is read from it. * marks the point of attachment. C20 diacid = O=C(O)CCCCCCCCCCCCCCCCCCC(=O)*; γGlu = O=C(O)[C@H](CCC(=O)[*:2])N[*:1]

Tests used:
[1] = biological target: T1, human amylin receptor (membranes from Amylin 3(a)/CRE-luc cells) (Homo sapiens, UniProt O60896+P30988); test: ASSAY (V) binding to the human amylin receptor (SPA, 125I-rat amylin); conditions: for IC50: Table 4, read-out: hAmylin-R bind IC50;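 as to all read-outs here: competition binding of cell membranes (35 ng/µL) mixed with SPA beads in 384-well plates at 40 µL total volume, read by scintillation counting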
T1 construct: expressed in transfected cells
T1 sequence (P30988 25-474): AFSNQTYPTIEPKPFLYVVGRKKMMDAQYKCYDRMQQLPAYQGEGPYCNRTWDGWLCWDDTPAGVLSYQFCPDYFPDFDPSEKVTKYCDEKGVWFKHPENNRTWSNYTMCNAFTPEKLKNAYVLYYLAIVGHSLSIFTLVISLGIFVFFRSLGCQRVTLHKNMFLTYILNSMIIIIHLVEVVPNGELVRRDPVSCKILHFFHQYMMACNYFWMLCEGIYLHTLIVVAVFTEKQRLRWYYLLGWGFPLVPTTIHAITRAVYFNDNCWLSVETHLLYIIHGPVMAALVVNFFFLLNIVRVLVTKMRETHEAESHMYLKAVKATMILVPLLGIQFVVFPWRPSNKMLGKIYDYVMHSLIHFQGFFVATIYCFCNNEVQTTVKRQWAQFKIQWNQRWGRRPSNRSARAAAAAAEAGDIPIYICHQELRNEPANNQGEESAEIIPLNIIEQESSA
T1 sequence (O60896 24-148 partner): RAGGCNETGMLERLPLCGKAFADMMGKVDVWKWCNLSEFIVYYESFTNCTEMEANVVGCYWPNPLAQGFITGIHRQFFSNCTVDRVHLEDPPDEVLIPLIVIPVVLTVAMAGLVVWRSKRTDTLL

rat calcitonin receptor = biological target: T2, rat calcitonin receptor (Rattus norvegicus, UniProt P32214); test: ASSAY (VIII) binding to the rat calcitonin receptor; conditions: Table 7, read-out: rCTR bind IC50
T2 construct: expressed in transfected cells; host or cells: BHK tk'ts 13 (transient, FuGENE 6), membranes
T2 sequence (P32214 25-479 isoform P32214-2 limits assumed): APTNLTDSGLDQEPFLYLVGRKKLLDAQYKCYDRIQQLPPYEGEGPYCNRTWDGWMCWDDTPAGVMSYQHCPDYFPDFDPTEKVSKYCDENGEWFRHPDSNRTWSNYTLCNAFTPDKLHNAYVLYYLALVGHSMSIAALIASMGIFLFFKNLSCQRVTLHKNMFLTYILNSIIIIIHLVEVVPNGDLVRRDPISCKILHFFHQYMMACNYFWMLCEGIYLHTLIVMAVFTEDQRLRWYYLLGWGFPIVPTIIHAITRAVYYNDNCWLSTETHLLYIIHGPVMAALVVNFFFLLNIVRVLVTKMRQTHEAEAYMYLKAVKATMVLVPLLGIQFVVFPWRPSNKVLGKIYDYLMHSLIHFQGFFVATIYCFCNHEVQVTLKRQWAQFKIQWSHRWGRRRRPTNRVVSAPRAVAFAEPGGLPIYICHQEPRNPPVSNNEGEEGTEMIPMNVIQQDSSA
Method in brief: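 Rat calcitonin receptor is expressed transiently in BHK tk′ts 13 cells cultured in DMEM with 10% FBS. Roughly two days (approximately 48 hours) post-transfection, cells are harvested for membrane preparation.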

[2] = biological target: T3, rat amylin receptor (rat calcitonin receptor + rat RAMP 3) (Rattus norvegicus, UniProt P32214+Q9JJ73); test: ASSAY (VI) binding to the rat amylin receptor; conditions: for IC50: binding to rat amylin receptor, read-out: rAmylin-R bind IC50
T3 construct: expressed in transfected cells; host or cells: BHK tk'ts 13 (transient, FuGENE 6), membranes
T3 sequence (P32214 25-479 isoform P32214-2 limits assumed): T2 sequence (P32214 25-479 isoform P32214-2 limits assumed)
T3 sequence (Q9JJ73 23-147 partner): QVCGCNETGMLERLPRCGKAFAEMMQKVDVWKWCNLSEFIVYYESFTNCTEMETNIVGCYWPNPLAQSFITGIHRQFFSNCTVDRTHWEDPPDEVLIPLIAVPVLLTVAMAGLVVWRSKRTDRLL
Method in brief: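 This assay measured binding to the rat amylin receptor. BHK tk′ts 13 cells were transiently transfected with the rat calcitonin receptor using FuGENE® 6 (Roche), following the manufacturer's recommendations. About 48 hours after transfection, the cells were harvested and membranes were prepared from them for the binding determination.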

[3] = biological target: T4, human amylin 3(a) receptor (human calcitonin receptor + RAMP-3) in BHK570 cells (Homo sapiens, UniProt O60896+P30988); test: ASSAY (II)a functional assay, human amylin receptor (CRE luciferase); assay type: cell-based; conditions: for EC50: human amylin receptor functional potency, assay (II), read-out: hAmylin-R funct. EC50
T4 construct: expressed in transfected cells
Method in brief: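 BHK CRE-luc cells, calcitonin (a) receptor ± RAMP-3 (amylin 3(a)); overnight seeding, 37° C/5% CO2. 3 h ligand exposure, DMEM/10% FBS/10 mM Hepes pH 7.4. LucLite 30 min RT; luminescence (SPC).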

[4] = ASSAY (IV) determination of solubility; assay type: physicochemical
Method in brief: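 Dissolve polypeptide in water ([…] stock); combine 1:1 with each 100 mM buffer (glycylglycine pH 3.0/4.0/5.0; bistrispropane pH 6.0/6.5/7.0/7.5/8.0); hold 18 hours at room temperature; centrifuge; quantify polypeptide by UPLC.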

[5] = Table 5, selectivity, hCTR bind IC50 / hAmylin-R bind IC50
[6] = Table 5a, selectivity, hCTR bind IC50 / hAmylin-R bind IC50
[7] = Table 5b, selectivity, hCTR bind IC50 / hAmylin-R bind IC50
[8] = Table 5c, selectivity, hCTR bind IC50 / hAmylin-R bind IC50
[9] = Table 7, human binding selectivity, included for comparison
[10] = Table 7a (preferred compounds), human binding selectivity, included for comparison
[11] = ratio of human calcitonin receptor binding IC50 to human amylin receptor binding IC50
[12] = Table 7, rat binding selectivity, rCTR IC50 / rAmylin-R IC50
[13] = Table 7a (preferred compounds), rat binding selectivity, rCTR IC50 / rAmylin-R IC50
[14] = ratio of rCTR bind IC50 to rAmylin-R bind IC50
[15] = hCTR funct. EC50 divided by hAmylin-R funct. EC50
[16] = hCTR funct. EC50 over hAmylin-R funct. EC50
[17] = human functional selectivity: hCTR funct. EC50 / hAmylin-R funct. EC50
[18] = bistrispropane buffer, pH 6.5, read-out: Solubility pH 6.5 Concentration
[19] = bistrispropane buffer, pH 7.5, read-out: Solubility pH 7.5 Concentration
[20] = bistrispropane buffer, pH 6.0, read-out: Solubility pH 6.0 Concentration
[21] = bistrispropane buffer, pH 7.0, read-out: Solubility pH 7.0 Concentration
[22] = bistrispropane buffer, pH 8.0, read-out: Solubility pH 8.0 Concentration
[23] = glycylglycine buffer, pH 3.0, read-out: Solubility pH 3.0 Concentration
[24] = glycylglycine buffer, pH 4.0, read-out: Solubility pH 4.0 Concentration
[25] = glycylglycine buffer, pH 5.0, read-out: Solubility pH 5.0 Concentration

IC50 [1] | Ratio hCT/hAmylin binding [1, 5] | Ratio hCT/hAmylin binding [1, 6] | Ratio hCT/hAmylin binding [1, 7] | Ratio hCT/hAmylin binding [1, 8] | Ratio hCT/hAmylin binding [1, 9] | Ratio hCT/hAmylin binding [1, 10] | Ratio hCT/hAmylin binding [1, 11] | IC50 (rat calcitonin receptor) | IC50 ([2]; Table 7) | Ratio rCT/rAmylin binding [2, 12] | Ratio rCT/rAmylin binding [2, 13] | Ratio rCT/rAmylin binding [2, 14] | Ratio hCT/hAmylin funct. [3, 15] | Ratio hCT/hAmylin funct. [3, 16] | EC50 [3] | Ratio hCT/hAmylin funct. [3, 17] | solubility at 18 h [4, 18] | solubility at 18 h [4, 19] | solubility at 18 h [4, 20] | SMILES | also measured
0.88 nM | 48.6 | 48.6 | 48.6 | 48.6 | 48.6 | 48.6 | 48.6 | 52.4 nM | 0.381 nM | 137.4 | 137.4 | 137.4 | 26.0 | 26.0 | 0.333 nM | 26.0 | 174 µM (≈ 791 µg/mL) | 112 µM (≈ 509 µg/mL) | ≥ 200 µM | CC[C@H](C)[C@H](NC(=O)[C@H](C)NC(=O)CNC(=O)[C@H](Cc1ccccc1)NC(=O)[C@H](CC(N)=O)NC(=O)[C@@H]1CCCN1C(=O)[C@H](CO)NC(=O)[C@H](CO)NC(=O)[C@H](Cc1c[nH]cn1)NC(=O)[C@H](CCCNC(=N)N)NC(=O)[C@H](CC(C)C)NC(=O)[C@H](Cc1ccccc1)NC(=O)[C@H](CC(N)=O)NC(=O)[C@H](C)NC(=O)[C@H](CC(C)C)NC(=O)[C@H](CCCNC(=N)N)NC(=O)[C@H](CCC(N)=O)NC(=O)[C@@H](NC(=O)[C@H](C)NC(=O)[C@@H]1CSSC[C@H](NC(=O)[C@@H](N)CCCCNC(=O)CC[C@H](NC(=O)CC[C@H](NC(=O)CCCCCCCCCCCCCCCCCCC(=O)O)C(=O)O)C(=O)O)C(=O)N[C@@H](CC(N)=O)C(=O)N[C@@H]([C@@H](C)O)C(=O)N[C@@H](C)C(=O)N[C@@H]([C@@H](C)O)C(=O)N1)[C@@H](C)O)C(=O)N1CCC[C@H]1C(=O)N[C@@H](CO)C(=O)N[C@@H](CO)C(=O)N[C@H](C(=O)N1CCC[C@H]1C(=O)N[C@H](C(=O)NCC(=O)N1CCC[C@H]1C(=O)N[C@@H](CCCNC(=N)N)C(=O)N[C@H](C(=O)N[C@@H](Cc1ccc(O)cc1)C(N)=O)[C@@H](C)O)C(C)C)[C@@H](C)O [Example 119] (H-K([γGlu-γGlu-C20 diacid])CNTATCATQRLANFLRHSSPNFGAIPSSTPVGPRTY-NH2; disulfide 2-7) | solubility at 18 h [4, 21]: 182 µM (≈ 827 µg/mL); solubility at 18 h [4, 22]: 32 µM (≈ 145 µg/mL); solubility at 18 h [4, 23]: 174 µM (≈ 791 µg/mL); solubility at 18 h [4, 24]: ≥ 200 µM; solubility at 18 h [4, 25]: ≥ 200 µM
0.833 nM | 159.3 | 159.3 | 159.3 | 159.3 | 159.3 | 159.3 | 159.3 | 352 nM | 2.8 nM | 125.7 | 125.7 | 125.7 | 64.4 | 64.4 | 0.298 nM | 64.4 | ≥ 200 µM | 157 µM (≈ 716 µg/mL) | ≥ 200 µM | CC[C@H](C)[C@H](NC(=O)[C@H](C)NC(=O)CNC(=O)[C@H](Cc1ccccc1)NC(=O)[C@H](CC(N)=O)NC(=O)[C@@H]1CCCN1C(=O)[C@H](CO)NC(=O)[C@H](CO)NC(=O)[C@H](Cc1c[nH]cn1)NC(=O)[C@H](CCCNC(=N)N)NC(=O)[C@H](CC(C)C)NC(=O)[C@H](Cc1ccccc1)NC(=O)[C@H](CC(N)=O)NC(=O)[C@H](C)NC(=O)[C@H](CC(C)C)NC(=O)[C@H](CCCNC(=N)N)NC(=O)[C@H](CCC(N)=O)NC(=O)[C@@H](NC(=O)[C@H](C)NC(=O)[C@@H]1CSSC[C@H](NC(=O)[C@@H](N)CCCCNC(=O)CC[C@H](NC(=O)CC[C@H](NC(=O)CCCCCCCCCCCCCCCCCCC(=O)O)C(=O)O)C(=O)O)C(=O)N[C@@H](CC(N)=O)C(=O)N[C@@H]([C@@H](C)O)C(=O)N[C@@H](C)C(=O)N[C@@H]([C@@H](C)O)C(=O)N1)[C@@H](C)O)C(=O)N1CCC[C@H]1C(=O)N[C@@H](CO)C(=O)N[C@@H](CO)C(=O)N[C@H](C(=O)N[C@@H](CC(N)=O)C(=O)N[C@H](C(=O)NCC(=O)N[C@@H](Cc1c[nH]cn1)C(=O)N[C@@H](CC(N)=O)C(=O)N[C@H](C(=O)N[C@@H](Cc1ccc(O)cc1)C(N)=O)[C@@H](C)O)C(C)C)[C@@H](C)O [Example 86] (H-K([γGlu-γGlu-C20 diacid])CNTATCATQRLANFLRHSSPNFGAIPSSTNVGHNTY-NH2; disulfide 2-7) | solubility at 18 h [4, 21]: ≥ 200 µM; solubility at 18 h [4, 22]: ≥ 200 µM; solubility at 18 h [4, 23]: ≥ 200 µM; solubility at 18 h [4, 24]: ≥ 200 µM; solubility at 18 h [4, 25]: ≥ 200 µM
